For 15 compounds, IC50 results are on record in patent US12030878B2 (BRISTOL-MYERS SQUIBB COMPANY, priority 2017, dated 2024).

Bounds are passed on as bounds.

Holding throughout (format): cell-based
One assay addresses T1, human TLR7 (Homo sapiens, UniProt Q9NYK1).
T1 construct: host or cells: HEK-Blue cells
T1 sequence (Q9NYK1 27-1049): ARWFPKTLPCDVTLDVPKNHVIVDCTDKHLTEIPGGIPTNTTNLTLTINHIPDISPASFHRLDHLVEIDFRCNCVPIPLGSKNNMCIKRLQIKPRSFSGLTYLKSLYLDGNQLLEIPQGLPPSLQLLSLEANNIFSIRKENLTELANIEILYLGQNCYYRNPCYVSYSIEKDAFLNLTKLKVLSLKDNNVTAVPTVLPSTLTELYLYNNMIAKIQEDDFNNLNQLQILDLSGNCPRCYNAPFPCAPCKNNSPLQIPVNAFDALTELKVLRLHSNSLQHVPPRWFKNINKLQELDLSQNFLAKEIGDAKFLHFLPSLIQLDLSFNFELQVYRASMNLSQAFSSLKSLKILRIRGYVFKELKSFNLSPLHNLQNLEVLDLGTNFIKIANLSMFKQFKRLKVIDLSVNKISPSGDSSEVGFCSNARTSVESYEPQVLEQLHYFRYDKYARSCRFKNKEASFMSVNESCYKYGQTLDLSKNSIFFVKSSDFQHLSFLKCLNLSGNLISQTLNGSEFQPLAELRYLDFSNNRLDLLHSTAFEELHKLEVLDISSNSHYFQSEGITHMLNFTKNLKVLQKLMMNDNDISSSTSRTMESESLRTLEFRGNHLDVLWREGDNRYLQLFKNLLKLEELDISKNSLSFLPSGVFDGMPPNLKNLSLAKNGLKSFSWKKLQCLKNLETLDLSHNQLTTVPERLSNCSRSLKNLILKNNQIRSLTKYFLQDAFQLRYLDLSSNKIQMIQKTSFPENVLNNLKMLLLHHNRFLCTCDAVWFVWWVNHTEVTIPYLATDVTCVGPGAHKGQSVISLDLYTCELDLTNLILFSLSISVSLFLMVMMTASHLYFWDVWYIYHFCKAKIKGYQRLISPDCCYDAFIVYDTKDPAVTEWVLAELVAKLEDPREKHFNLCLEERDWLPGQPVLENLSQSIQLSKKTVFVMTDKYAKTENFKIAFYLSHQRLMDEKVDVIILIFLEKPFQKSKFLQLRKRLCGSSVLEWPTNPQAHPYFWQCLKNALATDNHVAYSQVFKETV
The assay is described as follows: TLR7 inhibition reporter assay (HEK-Blue SEAP). The following applies: HEK-Blue cells overexpressing human TLR7, stimulated with gardiquimod 7.5 μM, 22 hour incubation. The essentials:
(§1)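 Stimulation followed a 30 min room-temperature compound exposure (final 0.05 nM-50 μM): TLR7 cells with 7.5 μM gardiquimod, TLR8 with 15.9 μM R848, TLR9 with 5 nM ODN2006. After 22 h at 37 °C, secreted alkaline phosphatase was detected colorimetrically and inhibition calculated against DMSO and known-inhibitor controls.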

In a further assay the target is T2, human TLR8 (Homo sapiens, UniProt Q9NR97).
T2 construct: host or cells: HEK-Blue cells
T2 sequence (Q9NR97 27-1041): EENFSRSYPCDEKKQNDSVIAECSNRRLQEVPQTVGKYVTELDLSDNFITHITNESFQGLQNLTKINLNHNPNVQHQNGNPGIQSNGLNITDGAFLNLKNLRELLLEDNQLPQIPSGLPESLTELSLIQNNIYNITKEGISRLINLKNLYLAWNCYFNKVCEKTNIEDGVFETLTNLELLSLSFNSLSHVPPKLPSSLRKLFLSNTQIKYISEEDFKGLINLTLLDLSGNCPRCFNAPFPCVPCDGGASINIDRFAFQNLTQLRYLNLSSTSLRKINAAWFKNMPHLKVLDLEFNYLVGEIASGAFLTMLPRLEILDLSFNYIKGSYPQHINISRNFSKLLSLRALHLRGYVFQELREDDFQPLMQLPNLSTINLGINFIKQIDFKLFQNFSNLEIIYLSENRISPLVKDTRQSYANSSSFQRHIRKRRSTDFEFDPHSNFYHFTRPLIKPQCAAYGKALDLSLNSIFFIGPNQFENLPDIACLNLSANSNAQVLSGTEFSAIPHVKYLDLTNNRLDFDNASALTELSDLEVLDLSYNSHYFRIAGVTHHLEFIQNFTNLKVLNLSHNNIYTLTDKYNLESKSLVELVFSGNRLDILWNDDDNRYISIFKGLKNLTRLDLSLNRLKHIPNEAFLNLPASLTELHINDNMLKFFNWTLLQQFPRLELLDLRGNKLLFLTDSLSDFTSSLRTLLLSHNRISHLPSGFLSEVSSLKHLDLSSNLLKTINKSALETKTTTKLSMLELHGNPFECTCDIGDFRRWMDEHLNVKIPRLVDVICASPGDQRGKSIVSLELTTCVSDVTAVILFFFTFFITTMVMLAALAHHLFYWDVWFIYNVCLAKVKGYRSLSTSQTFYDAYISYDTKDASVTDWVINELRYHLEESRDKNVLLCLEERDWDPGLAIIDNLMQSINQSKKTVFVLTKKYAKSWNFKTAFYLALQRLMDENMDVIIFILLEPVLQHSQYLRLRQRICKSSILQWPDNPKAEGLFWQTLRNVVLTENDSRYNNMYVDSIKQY
The assay is described as follows: TLR8 inhibition reporter assay (HEK-Blue SEAP). The note with it: HEK-Blue cells overexpressing human TLR8, stimulated with R848 15.9 μM, 22 hour incubation. In outline:
as §1
Background: Reporter assays use an easily measured gene product as a stand-in for the process of interest.

Another assay deals with T3, human TLR9 (Homo sapiens, UniProt Q9NR96).
T3 construct: host or cells: HEK-Blue cells
T3 sequence (Q9NR96 26-1032): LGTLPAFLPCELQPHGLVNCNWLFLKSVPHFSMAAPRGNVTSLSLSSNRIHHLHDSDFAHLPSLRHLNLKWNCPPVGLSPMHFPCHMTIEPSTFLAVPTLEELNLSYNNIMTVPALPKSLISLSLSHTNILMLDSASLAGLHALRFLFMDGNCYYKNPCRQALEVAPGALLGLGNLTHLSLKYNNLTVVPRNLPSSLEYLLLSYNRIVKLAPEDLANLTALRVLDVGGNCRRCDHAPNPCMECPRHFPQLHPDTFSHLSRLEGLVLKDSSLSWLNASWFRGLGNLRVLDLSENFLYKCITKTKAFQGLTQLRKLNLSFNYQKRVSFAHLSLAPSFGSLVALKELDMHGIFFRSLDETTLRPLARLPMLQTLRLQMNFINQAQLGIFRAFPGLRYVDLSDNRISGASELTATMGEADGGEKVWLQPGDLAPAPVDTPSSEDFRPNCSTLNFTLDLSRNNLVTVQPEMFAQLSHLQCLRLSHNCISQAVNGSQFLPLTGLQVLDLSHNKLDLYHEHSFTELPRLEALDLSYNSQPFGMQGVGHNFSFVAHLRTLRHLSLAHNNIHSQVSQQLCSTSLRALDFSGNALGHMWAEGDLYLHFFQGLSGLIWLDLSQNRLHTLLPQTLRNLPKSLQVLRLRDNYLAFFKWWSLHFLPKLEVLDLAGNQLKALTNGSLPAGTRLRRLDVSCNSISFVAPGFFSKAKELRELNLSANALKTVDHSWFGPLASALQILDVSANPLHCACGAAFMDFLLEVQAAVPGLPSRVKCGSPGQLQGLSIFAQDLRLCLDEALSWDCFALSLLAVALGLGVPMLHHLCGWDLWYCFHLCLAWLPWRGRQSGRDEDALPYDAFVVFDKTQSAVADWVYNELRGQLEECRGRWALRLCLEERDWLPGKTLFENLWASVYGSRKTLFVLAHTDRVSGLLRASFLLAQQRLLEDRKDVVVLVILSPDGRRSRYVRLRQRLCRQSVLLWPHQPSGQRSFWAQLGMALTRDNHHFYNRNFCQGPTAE
The assay is described as follows: TLR9 inhibition reporter assay (HEK-Blue SEAP). The following applies: HEK-Blue cells overexpressing human TLR9, stimulated with ODN2006 5 nM, 22 hour incubation. In outline: as §1

What is called IC50 is the concentration that inhibits the measured activity by half. A high value points to a need for much substance. Consider `Cc1cc(-c2[nH]c3ccc(OCc4ccc(N5CCOCC5)cc4)cc3c2C(C)C)ccn1` [Example 168, 4-(4-(((3-isopropyl-2-(2-methylpyridin-4-yl)-1H-indol-5-yl)oxy)methyl)phenyl)morpholine], for which the IC50 against human TLR7 is 4.93 µM; against human TLR8, 0.134 µM; against human TLR9 it was greater than 50 µM.

Take `Cc1cc(-c2[nH]c3ccc(OCc4cccnc4)cc3c2C(C)C)ccn1` [Example 169, 3-isopropyl-2-(2-methylpyridin-4-yl)-5-(pyridin-3-ylmethoxy)-1H-indole]: the IC50 worked out at 0.2 µM at human TLR7, 0.181 µM at human TLR8 and 28.4 µM against human TLR9.

As to `COc1ccc(-c2[nH]c3ccc(O[C@H]4CCNC4)cc3c2C(C)C)cc1OC` [Example 170, (S)-2-(3,4-dimethoxyphenyl)-3-isopropyl-5-(pyrrolidin-3-yloxy)-1H-indole], the half-inhibitory concentration (IC50) on human TLR7 stood at 0.0839 µM; at human TLR8, 0.0313 µM; at human TLR9, 1.08 µM.

Regarding `COc1ccc(-c2[nH]c3ccc(OC4CCNCC4)cc3c2C(C)C)cc1OC` [Example 171, 2-(3,4-dimethoxyphenyl)-3-isopropyl-5-(piperidin-4-yloxy)-1H-indole], the half-inhibitory concentration (IC50) at human TLR7 was 0.166 µM; at human TLR8, 0.0153 µM; against human TLR9 it was 0.939 µM.

As to `CNCCOc1ccc2[nH]c(-c3ccnc(C)c3)c(C(C)C)c2c1` [Example 172, 2-((3-isopropyl-2-(2-methylpyridin-4-yl)-1H-indol-5-yl)oxy)-N-methylethan-1-amine], the IC50 against human TLR7 was found to be 0.119 µM; at human TLR8, 0.0127 µM; on human TLR9, 3.12 µM.

Regarding `COc1ccc(-c2[nH]c3ccc(OCCN4CCOCC4)cc3c2C(C)C)cc1OC` [Example 173, 4-(2-((2-(3,4-dimethoxyphenyl)-3-isopropyl-1H-indol-5-yl)oxy)ethyl)morpholine], the IC50 is 0.682 µM at human TLR7, 0.0633 µM against human TLR8 and 5.05 µM at human TLR9.

For the compound `Cc1cc(-c2[nH]c3ccc(OCc4ccncc4)cc3c2C(C)C)ccn1` [Example 174, 3-isopropyl-2-(2-methylpyridin-4-yl)-5-(pyridin-4-ylmethoxy)-1H-indole], the IC50 at human TLR7 is 3.59 µM; against human TLR8 it was 3.02 µM; on human TLR9, greater than 50 µM.

As to `Cc1cc(-c2[nH]c3ccc(OCCN4CCOCC4)cc3c2C(C)C)ccn1` [Example 175, 4-(2-((3-isopropyl-2-(2-methylpyridin-4-yl)-1H-indol-5-yl)oxy)ethyl)morpholine], the figures for the concentration for half-maximal inhibition (IC50) against human TLR7, at human TLR8 and at human TLR9 were 0.439 µM, 0.0175 µM and 9.94 µM, respectively.

On to `Cc1cc(-c2[nH]c3ccc(OC4CCCNC4)cc3c2C(C)C)ccn1` (stereo not drawn) [Example 177, 3-isopropyl-2-(2-methylpyridin-4-yl)-5-(piperidin-3-yloxy)-1H-indole], for which the figures for the IC50 on human TLR7, against human TLR8 and at human TLR9 were 0.0278 µM, 0.0334 µM and 1.29 µM, respectively.

As for `Cc1cc(-c2[nH]c3ccc(OC4CCN(C)CC4)cc3c2C(C)C)ccn1` [Example 179, 3-isopropyl-5-((1-methylpiperidin-4-yl)oxy)-2-(2-methylpyridin-4-yl)-1H-indole], the IC50 was 0.0397 µM against human TLR7, 0.0025 µM against human TLR8 and 1.44 µM on human TLR9.

On to `Cc1cc(-c2[nH]c3ccc(OCC4CCCNC4)cc3c2C(C)C)ccn1` (stereo not drawn) [Example 180, 3-isopropyl-2-(2-methylpyridin-4-yl)-5-(piperidin-3-ylmethoxy)-1H-indole], for which the half-maximal inhibitory concentration (IC50) against human TLR7 was 0.0377 µM; against human TLR8, 0.0035 µM; on human TLR9, 1.83 µM.

`Cc1cc(-c2[nH]c3ccc(OCC4CCCN(C)C4)cc3c2C(C)C)ccn1` (stereo not drawn) [Example 181, 3-isopropyl-5-((1-methylpiperidin-3-yl)methoxy)-2-(2-methylpyridin-4-yl)-1H-indole]: the figures for the IC50 against human TLR7, against human TLR8 and at human TLR9 were 0.0242 µM, 0.0059 µM and 0.915 µM, respectively.

Consider `CCc1c(-c2ccnc(C)c2)[nH]c2ccc(O[C@H]3CCNC3)cc12` [Example 182, (S)-3-ethyl-2-(2-methylpyridin-4-yl)-5-(pyrrolidin-3-yloxy)-1H-indole], for which the values for the IC50 against human TLR7, on human TLR8 and against human TLR9 were 0.4 µM, 0.0192 µM and 0.566 µM, respectively.

Turning to `CCc1c(-c2ccnc(C)c2)[nH]c2ccc(OCC3CCN(C)CC3)cc12` [Example 183, 3-ethyl-5-((1-methylpiperidin-4-yl)methoxy)-2-(2-methylpyridin-4-yl)-1H-indole], the figures for the IC50 at human TLR7, against human TLR8 and against human TLR9 were 0.131 µM, 0.012 µM and 0.512 µM, respectively.

Consider `Cc1cc(-c2[nH]c3ccc(OC4CCC(OC5CCNCC5)CC4)cc3c2C(C)C)ccn1` (stereo not drawn) [Example 184, 3-isopropyl-2-(2-methylpyridin-4-yl)-5-((4-(piperidin-4-yloxy)cyclohexyl)oxy)-1H-indole], for which the half-maximal inhibitory concentration (IC50) at human TLR7 stood at 0.0519 µM; against human TLR8 it was 0.0546 µM; at human TLR9, 5.3 µM.
